Source: paper PMC4584933, “Establishing the pig as a large animal model for vaccine development against human cancer” (Frontiers in Genetics, 2015)

Key:
PBMCs = experiment: In vitro peptide stimulation of porcine PBMCs, IFN-γ release assay (ELISA); assay type: cell-based, pig; set-up: key to T cell response: “x” indicates that a response was found to this given peptide at least once; conditions: 5 μg/ml peptide; for T cell response: PBMCs of immunized pigs, 2 × 10^5/well, 67.5–70.0 h, IFN-γ ELISA, response = 2-fold increase vs day -2 and at least 25 pg/ml IFN-γ, found at least once, SLA restriction not included
SLA-2*05:02 = experiment: Peptide-MHC class I complex stability, scintillation proximity assay (SPA); set-up: species or system pig; conditions: biotinylated recombinant SLA heavy chain, 125I-β2m, excess unlabeled β2m, read every 40 min, number only if t1/2 ≥ 0.5 h, '-' = not stably binding
Description: (§1) The stability of the selected 198 peptides in complex with relevant SLA class I molecules and β2m was determined using a scintillation proximity assay (SPA), as previously described (Harndahl et al., [2011]). Briefly, biotinylated recombinant MHC class I heavy chains were attached to a streptavidin-coated scintillation microplate together with iodinated (^125I) β2m and candidate peptide resulting in a scintillation signal, which was consecutively measured every 40 min by a scintillation plate counter. The duration of this signal is directly correlated to the stability of the peptide-MHC class I-β2m complex under dissociating conditions and in the presence of excess unlabeled β2m (Harndahl et al., [2011]). Peptides with a half-life ≥ 0.5 h were selected as stable binders.

SLA-1*07:02 = experiment: as above; set-up: species or system pig; conditions: biotinylated recombinant SLA heavy chain, 125I-β2m, excess unlabeled β2m, read every 40 min, number only if t1/2 ≥ 0.5 h, '-' = not stably binding
Description: as §1

SLA-3*04:01 = experiment: as above; set-up: species or system pig; conditions: biotinylated recombinant SLA heavy chain, 125I-β2m, excess unlabeled β2m, read every 40 min, number only if t1/2 ≥ 0.5 h, '-' = not stably binding
Description: as §1

SLA-2*04:01 = experiment: as above; set-up: species or system pig; conditions: biotinylated recombinant SLA heavy chain, 125I-β2m, excess unlabeled β2m, read every 40 min, number only if t1/2 ≥ 0.5 h, '-' = not stably binding
Description: as §1

Row | Sequence | T cell response (PBMCs) | Binder (t1/2 ≥ 0.5 h): half-life of peptide-SLA-2*05:02 complex (SLA-2*05:02) | other results
1 | ALQKALLDI [IDO5, porcine IDO-derived 9-11mer peptide] | x | - (t1/2 (hours) is listed for each of the stably binding peptides (t1/2 ≥ 0.5 h)) | –
2 | DLRQDEHTR [RhoC6, porcine RhoC-derived 9-11mer peptide] | x | 30 min | –
3 | DVILMCFSI [RhoC12, porcine RhoC-derived 9-11mer peptide] | x | 354 min | –
4 | EIAAASAIKV [IDO15, porcine IDO-derived 9-11mer peptide] | x | 156 min | maximum level of secreted IFN-γ (PBMCs; pig 2042 (CASAC), day 12, following 72 h of stimulation, ELISA): 280 pg/mL
5 | ELAKMKQEPVR [RhoC16, porcine RhoC-derived 9-11mer peptide] | x | 48 min | –
6 | ENIPEKWTPEV [RhoC18, porcine RhoC-derived 9-11mer peptide] | x | 90 min | –
7 | EPVRSEEGRDM [RhoC20, porcine RhoC-derived 9-11mer peptide] | – | – | Binder (t1/2 ≥ 0.5 h): half-life of peptide-SLA-1*07:02 complex (SLA-1*07:02): 30 min
8 | EVEKLATLSI [IDO20, porcine IDO-derived 9-11mer peptide] | x | 42 min | –
9 | EVKHFCPNV [RhoC23, porcine RhoC-derived 9-11mer peptide] | x | 120 min | –
10 | EVKHFCPNVPI [RhoC24, porcine RhoC-derived 9-11mer peptide] | x | 336 min | –
11 | FLHSLESGPSV [IDO23, porcine IDO-derived 9-11mer peptide] | x | 36 min | –
12 | FLQEMRTYM [IDO24, porcine IDO-derived 9-11mer peptide] | – | – | Binder (t1/2 ≥ 0.5 h): half-life of peptide-SLA-1*07:02 complex (SLA-1*07:02): - (t1/2 (hours) is listed for each of the stably binding peptides (t1/2 ≥ 0.5 h))
13 | FPGGDCGKGFF [IDO30, porcine IDO-derived 9-11mer peptide] | – | – | Binder (t1/2 ≥ 0.5 h): half-life of peptide-SLA-1*07:02 complex (SLA-1*07:02): - (t1/2 (hours) is listed for each of the stably binding peptides (t1/2 ≥ 0.5 h))
14 | HLVLGYITM [IDO40, porcine IDO-derived 9-11mer peptide] | – | – | Binder (t1/2 ≥ 0.5 h): half-life of peptide-SLA-1*07:02 complex (SLA-1*07:02): - (t1/2 (hours) is listed for each of the stably binding peptides (t1/2 ≥ 0.5 h))
15 | HLVLGYITMAY [IDO41, porcine IDO-derived 9-11mer peptide] | – | – | Binder (t1/2 ≥ 0.5 h): half-life of peptide-SLA-1*07:02 complex (SLA-1*07:02): 30 min
16 | HPYDAWIAI [IDO42, porcine IDO-derived 9-11mer peptide] | – | – | Binder (t1/2 ≥ 0.5 h): half-life of peptide-SLA-1*07:02 complex (SLA-1*07:02): - (t1/2 (hours) is listed for each of the stably binding peptides (t1/2 ≥ 0.5 h))
17 | HPYDAWIAIAK [IDO43, porcine IDO-derived 9-11mer peptide] | – | – | Binder (t1/2 ≥ 0.5 h): half-life of peptide-SLA-1*07:02 complex (SLA-1*07:02): - (t1/2 (hours) is listed for each of the stably binding peptides (t1/2 ≥ 0.5 h))
18 | IAIAKNLPELI [IDO44, porcine IDO-derived 9-11mer peptide] | – | - (t1/2 (hours) is listed for each of the stably binding peptides (t1/2 ≥ 0.5 h)) | –
19 | KALEVFHQI [IDO45, porcine IDO-derived 9-11mer peptide] | – | - (t1/2 (hours) is listed for each of the stably binding peptides (t1/2 ≥ 0.5 h)) | –
20 | KGFFLVSLL [IDO49, porcine IDO-derived 9-11mer peptide] | – | - (t1/2 (hours) is listed for each of the stably binding peptides (t1/2 ≥ 0.5 h)) | Binder (t1/2 ≥ 0.5 h): half-life of peptide-SLA-3*04:01 complex (SLA-3*04:01): - (t1/2 (hours) is listed for each of the stably binding peptides (t1/2 ≥ 0.5 h))
21 | KLGLPPILVY [IDO55, porcine IDO-derived 9-11mer peptide] | – | – | Binder (t1/2 ≥ 0.5 h): half-life of peptide-SLA-1*07:02 complex (SLA-1*07:02): - (t1/2 (hours) is listed for each of the stably binding peptides (t1/2 ≥ 0.5 h))
22 | KLSEKLGLPPI [IDO56, porcine IDO-derived 9-11mer peptide] | – | - (t1/2 (hours) is listed for each of the stably binding peptides (t1/2 ≥ 0.5 h)) | –
23 | KVIPTLFNAI [IDO61, porcine IDO-derived 9-11mer peptide] | – | - (t1/2 (hours) is listed for each of the stably binding peptides (t1/2 ≥ 0.5 h)) | –

Row | Sequence | T cell response (PBMCs) | Binder (t1/2 ≥ 0.5 h): half-life of peptide-SLA-2*05:02 complex (SLA-2*05:02) | other results
24 | KVLPRNIAI [IDO62, porcine IDO-derived 9-11mer peptide] | – | - (t1/2 (hours) is listed for each of the stably binding peptides (t1/2 ≥ 0.5 h)) | Binder (t1/2 ≥ 0.5 h): half-life of peptide-SLA-3*04:01 complex (SLA-3*04:01): - (t1/2 (hours) is listed for each of the stably binding peptides (t1/2 ≥ 0.5 h))
25 | LLVEIAAASAI [IDO68, porcine IDO-derived 9-11mer peptide] | x | 30 min | –
26 | LPNPLEELPH [IDO69, porcine IDO-derived 9-11mer peptide] | – | – | Binder (t1/2 ≥ 0.5 h): half-life of peptide-SLA-1*07:02 complex (SLA-1*07:02): - (t1/2 (hours) is listed for each of the stably binding peptides (t1/2 ≥ 0.5 h))
27 | LSEKLGLPPI [IDO72, porcine IDO-derived 9-11mer peptide] | – | - (t1/2 (hours) is listed for each of the stably binding peptides (t1/2 ≥ 0.5 h)) | –
28 | LSYPDTDVI [RhoC35, porcine RhoC-derived 9-11mer peptide] | – | - (t1/2 (hours) is listed for each of the stably binding peptides (t1/2 ≥ 0.5 h)) | Binder (t1/2 ≥ 0.5 h): half-life of peptide-SLA-2*04:01 complex (SLA-2*04:01): - (t1/2 (hours) is listed for each of the stably binding peptides (t1/2 ≥ 0.5 h))
29 | LSYPDTDVIL [RhoC36, porcine RhoC-derived 9-11mer peptide] | x | 36 min | –
30 | LSYPDTDVILM [RhoC37, porcine RhoC-derived 9-11mer peptide] | – | 84 min | Binder (t1/2 ≥ 0.5 h): half-life of peptide-SLA-2*04:01 complex (SLA-2*04:01): - (t1/2 (hours) is listed for each of the stably binding peptides (t1/2 ≥ 0.5 h))
31 | MAAIRKKLVI [RhoC40, porcine RhoC-derived 9-11mer peptide] | – | 30 min | –
32 | MPPAHRNFLH [IDO77, porcine IDO-derived 9-11mer peptide] | – | – | Binder (t1/2 ≥ 0.5 h): half-life of peptide-SLA-1*07:02 complex (SLA-1*07:02): - (t1/2 (hours) is listed for each of the stably binding peptides (t1/2 ≥ 0.5 h))
33 | MTYKNMDIL [IDO80, porcine IDO-derived 9-11mer peptide] | – | - (t1/2 (hours) is listed for each of the stably binding peptides (t1/2 ≥ 0.5 h)) | Binder (t1/2 ≥ 0.5 h): half-life of peptide-SLA-3*04:01 complex (SLA-3*04:01): - (t1/2 (hours) is listed for each of the stably binding peptides (t1/2 ≥ 0.5 h)); Binder (t1/2 ≥ 0.5 h): half-life of peptide-SLA-2*04:01 complex (SLA-2*04:01): - (t1/2 (hours) is listed for each of the stably binding peptides (t1/2 ≥ 0.5 h))
34 | MVSLRNYHLQI [IDO84, porcine IDO-derived 9-11mer peptide] | – | - (t1/2 (hours) is listed for each of the stably binding peptides (t1/2 ≥ 0.5 h)) | –
35 | NPLEELPHPY [IDO86, porcine IDO-derived 9-11mer peptide] | – | – | Binder (t1/2 ≥ 0.5 h): half-life of peptide-SLA-1*07:02 complex (SLA-1*07:02): 312 min
36 | NSWKIFEEYHI [IDO91, porcine IDO-derived 9-11mer peptide] | x | 126 min | –
37 | PLLSEGLLY [IDO95, porcine IDO-derived 9-11mer peptide] | – | – | Binder (t1/2 ≥ 0.5 h): half-life of peptide-SLA-1*07:02 complex (SLA-1*07:02): 42 min
38 | SAIKVIPTLF [IDO114, porcine IDO-derived 9-11mer peptide] | x | - (t1/2 (hours) is listed for each of the stably binding peptides (t1/2 ≥ 0.5 h)) | Binder (t1/2 ≥ 0.5 h): half-life of peptide-SLA-2*04:01 complex (SLA-2*04:01): 30 min
39 | SLRNYHLQI [IDO118, porcine IDO-derived 9-11mer peptide] | – | - (t1/2 (hours) is listed for each of the stably binding peptides (t1/2 ≥ 0.5 h)) | Binder (t1/2 ≥ 0.5 h): half-life of peptide-SLA-3*04:01 complex (SLA-3*04:01): - (t1/2 (hours) is listed for each of the stably binding peptides (t1/2 ≥ 0.5 h))
40 | TVFENYIADI [RhoC51, porcine RhoC-derived 9-11mer peptide] | x | 54 min | –
41 | VLSKGDALL [IDO127, porcine IDO-derived 9-11mer peptide] | – | - (t1/2 (hours) is listed for each of the stably binding peptides (t1/2 ≥ 0.5 h)) | –
42 | VPTVFENYI [RhoC54, porcine RhoC-derived 9-11mer peptide] | – | 108 min | –
43 | VSLRNYHLQI [IDO130, porcine IDO-derived 9-11mer peptide] | – | - (t1/2 (hours) is listed for each of the stably binding peptides (t1/2 ≥ 0.5 h)) | Binder (t1/2 ≥ 0.5 h): half-life of peptide-SLA-3*04:01 complex (SLA-3*04:01): - (t1/2 (hours) is listed for each of the stably binding peptides (t1/2 ≥ 0.5 h))
44 | WKIFEEYHI [IDO131, porcine IDO-derived 9-11mer peptide] | x | 138 min | –
45 | YVPTVFENYI [RhoC61, porcine RhoC-derived 9-11mer peptide] | – | 42 min | –
